Like-named read-outs stand apart in the source and are kept apart here.
Legend:
[1] = target: human recombinant dopamine D1 receptor (Homo sapiens, UniProt P21728); test: Dopamine D1 receptor binding, [3H]SCH 23390 displacement; conditions: for inhibition at 0.1 µM: read-out: D1 % inhibition
male C57Bl/6 mice = test: Mouse formalin paw assay for inflammatory pain; format: in vivo; conditions: SC administration 30 min prior; morphine 5 mg/kg; compound 5 0.3, 1 or 3 mg/kg
[2] = target: T1, human recombinant 5-HT transporter (SERT) (Homo sapiens, UniProt P31645); test: biochemical; format: binding; conditions: read-out: SERT % inhibition
T1 construct: host or cells: CHO-S / SERT (h), cell membrane homogenates

[3] = target: human recombinant dopamine D2 short receptor (Homo sapiens, UniProt P14416); test: Dopamine D2 receptor binding, [3H]7-OH-DPAT displacement; conditions: inhibition at 100 nM; NI = no inhibition; read-out: D2 % inhibition
[4] = target: T2, human full-length recombinant serotonin 5-HT2A receptors (Homo sapiens, UniProt P28223); test: biochemical; format: binding; conditions: read-out: 5-HT2A % inhibition
T2 construct: human full-length recombinant serotonin 5-HT2A receptors expressed in HEK-293E cells

male CD-1 mice = conditions: mouse, in vivo
[5] = inhibition at 100 nM, NI = no inhibition

human recombinant dopamine D1 receptor, sequence (P21728 whole entry): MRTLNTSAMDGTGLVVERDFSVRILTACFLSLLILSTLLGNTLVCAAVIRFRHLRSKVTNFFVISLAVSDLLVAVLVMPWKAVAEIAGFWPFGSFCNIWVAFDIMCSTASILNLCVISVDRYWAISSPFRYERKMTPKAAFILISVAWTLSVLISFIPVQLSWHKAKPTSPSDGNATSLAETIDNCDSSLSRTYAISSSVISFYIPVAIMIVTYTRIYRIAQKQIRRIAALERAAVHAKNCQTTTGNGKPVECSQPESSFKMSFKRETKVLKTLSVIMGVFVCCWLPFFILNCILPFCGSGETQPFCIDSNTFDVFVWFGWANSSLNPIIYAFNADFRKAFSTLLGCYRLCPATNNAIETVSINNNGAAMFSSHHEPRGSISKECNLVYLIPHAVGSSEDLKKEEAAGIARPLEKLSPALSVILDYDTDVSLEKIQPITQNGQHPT
T1 sequence (P31645 whole entry): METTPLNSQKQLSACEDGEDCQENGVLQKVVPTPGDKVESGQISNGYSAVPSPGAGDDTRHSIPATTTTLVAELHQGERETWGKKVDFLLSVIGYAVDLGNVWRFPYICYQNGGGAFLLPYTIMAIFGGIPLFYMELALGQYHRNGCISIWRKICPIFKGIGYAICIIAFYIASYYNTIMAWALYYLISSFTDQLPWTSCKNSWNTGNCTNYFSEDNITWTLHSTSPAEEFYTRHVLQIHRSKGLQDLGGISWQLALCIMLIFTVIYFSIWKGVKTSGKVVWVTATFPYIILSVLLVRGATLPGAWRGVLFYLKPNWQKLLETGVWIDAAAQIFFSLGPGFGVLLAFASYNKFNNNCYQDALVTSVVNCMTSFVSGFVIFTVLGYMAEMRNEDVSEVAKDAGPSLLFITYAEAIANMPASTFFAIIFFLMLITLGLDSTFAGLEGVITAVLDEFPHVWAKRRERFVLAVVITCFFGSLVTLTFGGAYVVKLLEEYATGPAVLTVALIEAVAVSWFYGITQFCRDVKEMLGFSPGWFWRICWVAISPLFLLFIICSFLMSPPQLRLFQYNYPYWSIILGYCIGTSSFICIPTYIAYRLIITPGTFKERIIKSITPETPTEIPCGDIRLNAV
human recombinant dopamine D2 short receptor, sequence (P14416 1-414 isoform P14416-2): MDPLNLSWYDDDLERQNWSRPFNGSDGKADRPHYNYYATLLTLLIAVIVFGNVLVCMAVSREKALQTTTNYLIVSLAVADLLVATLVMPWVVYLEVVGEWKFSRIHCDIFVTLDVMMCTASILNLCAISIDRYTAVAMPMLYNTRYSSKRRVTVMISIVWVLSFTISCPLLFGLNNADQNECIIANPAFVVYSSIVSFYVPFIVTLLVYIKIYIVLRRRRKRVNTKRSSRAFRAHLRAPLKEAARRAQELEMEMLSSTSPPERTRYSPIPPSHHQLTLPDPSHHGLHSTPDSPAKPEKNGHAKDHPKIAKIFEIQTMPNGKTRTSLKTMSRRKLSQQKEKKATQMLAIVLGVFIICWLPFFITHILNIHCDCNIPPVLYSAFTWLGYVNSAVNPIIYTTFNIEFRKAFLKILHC
T2 sequence (P28223 whole entry): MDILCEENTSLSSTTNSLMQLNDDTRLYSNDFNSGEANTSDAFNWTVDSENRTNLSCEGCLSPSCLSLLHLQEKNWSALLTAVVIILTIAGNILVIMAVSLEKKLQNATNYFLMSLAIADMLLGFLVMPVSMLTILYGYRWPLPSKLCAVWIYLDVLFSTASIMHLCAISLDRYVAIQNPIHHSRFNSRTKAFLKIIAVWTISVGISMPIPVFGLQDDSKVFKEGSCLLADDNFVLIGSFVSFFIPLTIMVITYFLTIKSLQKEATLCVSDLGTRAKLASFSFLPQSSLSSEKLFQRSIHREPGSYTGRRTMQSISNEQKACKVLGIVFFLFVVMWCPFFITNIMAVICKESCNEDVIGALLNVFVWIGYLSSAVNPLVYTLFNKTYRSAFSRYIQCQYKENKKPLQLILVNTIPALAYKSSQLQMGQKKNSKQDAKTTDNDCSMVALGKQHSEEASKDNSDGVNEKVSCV

## O=C1CN2c3c(cccc3[C@@H]3CN(CCCOc4ccc(F)cc4)CC[C@@H]32)N1 [compound 5, (6bR,10aS)-8-(3-(4-Fluorophenoxy)propyl)-6b,7,8,9,10,10a-hexahydro-1H-pyrido[3′,4′:4,5]pyrrolo[1,2,3-de]quinoxalin-2(3H)-one]
[1]
  D1(Ki or (% Inhibition)): % inhibition: 50 (44%)
  inhibition at 0.1 µM: 44%
Male C57Bl/6 mice
  licking response to formalin injection: dose-dependently reduced

## CC1C(=O)Nc2cccc3c2N1[C@H]1CCN(CCCOc2ccc(F)cc2)C[C@@H]31 (stereo partly drawn) [compound 51, (6bR,10aS)-8-(3-(4-Fluorophenoxy)propyl)-1-methyl-6b,7,8,9,10,10a-hexahydro-1H-pyrido[3′,4′:4,5]-pyrrolo[1,2,3-de]quinoxalin-2(3H)-one]
[2]
  inhibition at 0.1 µM: < 0%
[1]; [5]
  inhibition at 0.1 µM: 26%
[3]
  inhibition at 0.1 µM: 49%
[4]
  inhibition at 0.1 µM: 88%

## O=C1CCN2c3c(cccc3[C@@H]3CN(CCCOc4ccc(F)cc4)CC[C@@H]32)N1 [compound 53, (8aS,12aR)-11-(3-(4-Fluorophenoxy)propyl)-6,7,8a,9,10,11,12,12a-octahydro-[1,4]diazepino[3,2,1-hi]pyrido[4,3-b]indol-5(4H)-one]
[2]
  inhibition at 0.2 µM: 29%
[1]; [5]
  inhibition at 0.1 µM: 14%
[3]
  inhibition at 0.1 µM: 24%
[4]
  inhibition at 0.1 µM: 93%

## CN1CC[C@]23c4c5ccc(O)c4O[C@H]2[C@@H](O)C=C[C@H]3[C@H]1C5 [morphine]
Male C57Bl/6 mice
  licking response to formalin injection: significantly suppressed
Male CD-1 mice
  analgesic effect after pretreatment with naloxone: attenuated
  latency to tail flick compared to the vehicle: significantly increased
